{"source": "patent US20210244686A1", "about": "“Novel Systems And Methods For The Therapeutic Use of Cannabinoids or Cannabinoid Analogs to Increase The Lipid Order of Cholesterol Containing Cell Membranes” (The Regents of the University of Colorado a body corporate, priority 2018, published 2021)", "key": {"[1]": {"test_system": "HEK293T cells", "experiment": "Live cell microscopy apoptosis assay (caspase 3/7 dye)", "format": "cell-based", "details": "DHA 75 μM with MBCD 300 μM or CBD 6.25 μM", "procedure": "In order to gain further insight into the sensitivity of CBD treated cells to 25-hydroxy cholesterol, the present inventors repeated the apoptosis assay in SK-N-BE(2) and HEK293T cells with combinatorial 25-hydroxy cholesterol/CBD stimulation using sublethal doses of 25-hydroxy cholesterol (15 μg/ml) and CBD (20 μM) in the presence or absence of either the chemical inhibitor of cholesterol transport (U18666A, 10 μM) or cholesterol storage (VULM 1457, 5 μM).\nFRAP experiments reveal that DHA and CBD have opposing effects on the lateral diffusion of fluorescently labelled cholesterol in synthetic membranes. Although this implies that CBD increases lipid order and that DHA decreases lipid order, it remains unclear how relevant these biophysical effects of CBD and DHA are to cellular physiology. As a result, the present inventors sought to determine whether CBD and DHA have opposing effects on cells. To this end, the present inventors repeated the live cell apoptosis assays in cells exposed to increasing doses of DHA to determine how DHA affects cell death."}, "[2]": {"test_system": "SK-N-BE(2) cells", "experiment": "Lipidomics of total lipid abundance", "format": "cell-based, human", "description": "To investigate the effect of CBD on cholesterol storage, the present inventors performed follow up experiments to determine the total cellular amounts of small molecule markers of cholesterol storage as a function of CBD exposure. The inventors detected accumulation of multiple species of cholesteryl esters with diverse chain length and degree of unsaturation in the acyl chain (FIG. 4A).\nSince this esterification requires acyl CoA reactants, the inventors surveyed our dataset for evidence of fatty acid utilization.\nThus, the present inventors found multiple lines of evidence consistent with activation of cholesterol esterification in the CBD response. To further support the claim that CBD elicits cholesterol storage, the present inventors used live cell confocal microscopy of SK-N-BE(2) cells stained with both fluorescent cholesterol (22-NBD-Cholesterol) and the lipid droplet dye nile red (FIG. 4E) to quantify the number and size of lipid droplets. […] Altogether, these combined experiments highlight that the CBD response in cells includes activation of cholesterol esterification and storage.\nExtraction of cholesterol, precursors, free fatty acids, cholesteryl esters, and phospho lipids were performed in the following manner. SK-N-BE(2) cells in 10 cm dishes were washed with 10 mL PBS twice and then cells were scraped and pelleted at 400 rcf for 2 minutes. Cell pellets were resuspended in 100% methanol at 4° C. and sonicate at 70% power in 10 pulses, 5 seconds on/5 seconds off. The resulting lysate was rotated for 60 minutes at room temperature, followed by centrifugation for 20 min at 4° C. (16,100 rcf). Subcellular fractionation of organelles from intact SK-N-BE(2) cells was done in the following manner to assess subcellular CBD distribution. Cells in 10 cm culture dishes were harvest by washing twice with 10 mL PBS at room temperature, followed by trypsinization using a cell culture grade Trypsin/EDTA solution (ThermoFisher). Trypsinized cells were quenched by addition of 2 mL 10% FBS containing DMEM and cells were pelleted by centrifugation for 2 min at 4° C. (200 rcf). Cell pellets were wash one time with 10 mL PBS, and resuspended in 1 mL Tween20 Buffer (1×PBS, 0.05% Tween20, 5 mM EDTA). This lysate was subjected to mechanical disruption using a 1 mL glass Dounce homogenizer, 10 full passes at 4° C. Nuclei was pelleted from homogenate by centrifugation for 5 min at 4° C. (2,000 rcf). Supernatant was separated and insoluble ER membranes were pelleted by centrifugation for 10 min at 4° C. (4,000 rcf). Supernatant was separated and insoluble plasma membranes were pelleted by centrifugation for 10 min at 4° C. (16,000 rcf). […]"}, "[3]": {"test_system": "SK-N-BE(2) cells", "experiment": "Fluorometric total cellular cholesterol (Amplex Red Cholesterol Assay Kit)", "format": "cell-based, human", "details": "orthogonal experiment", "description": "FIG. 11A-C. (A) Plots of 13C labelled (left) and total+labeled cholesterol (right) abundances measured in methanol extracts from vehicle/CBD treated cells. (B) A similar analysis for cholesterol precursors. (C) Fluorometric measurement of total cellular cholesterol from methanol extracts of SK-N-BE(2) cells using the Amplex Red Cholesterol Assay Kit.\nThese findings raise the question of whether CBD treatment leads to alterations in lipid and cholesterol metabolism (the latter pathway depicted in FIG. 3A). The present inventors used mass spectrometry-based lipidomics, a subset of metabolomics, to quantify the effect of CBD on the fluxes of key lipids and sterols. Vehicle and CBD exposed cells were fed ^13C labeled glucose for 24 hours and harvested using methanol extraction and mass spectrometry analysis. Cholesterol biosynthesis was analyzed by determining the level of incorporation of ^13C into biosynthetic intermediates. […] The effect of CBD on total cellular cholesterol was confirmed using a fluorogenic assay for cholesterol in an orthogonal experiment (FIG. 11B)."}}}
{"smiles": "C=C(C)[C@@H]1CCC(C)=C[C@H]1c1c(O)cc(CCCCC)cc1O", "note": "[CBD, cannabidiol]", "values": [{"measurement": "effect on DHA induced apoptosis", "setting": "[1]", "result": "completely cancel the apoptotic effects"}, {"measurement": "cholesteryl esters", "setting": "[2]; CBD 20 μM vs vehicle", "result": "accumulation"}, {"measurement": "free fatty acid levels", "setting": "[2]; CBD 20 μM vs vehicle", "result": "reduced"}, {"measurement": "free phospholipid head-groups", "setting": "[2]; CBD 20 μM vs vehicle", "result": "accumulation"}, {"measurement": "phosphatidylcholine and phosphatidylethanolamine species abundance", "setting": "[2]; CBD treated vs vehicle treated cells", "result": "reduced abundance"}, {"measurement": "effect on total cellular cholesterol, fluorogenic assay", "setting": "[3]", "result": "confirmed"}]}
